The target in the experiment is GCN2 (Homo sapiens, UniProt Q9P2K8). As to the kind of experiment: SPR, steady state. Type of experiment: binding.

Our source for the Kd values is article doi:10.1101/2024.08.14.606984v2 (biorxiv, 2024).

The Kd is the constant that tells how readily two partners part at equilibrium. A high value points to lower affinity.

Molecules are shown by their SMILES.

Sequence of GCN2 (Q9P2K8 whole entry): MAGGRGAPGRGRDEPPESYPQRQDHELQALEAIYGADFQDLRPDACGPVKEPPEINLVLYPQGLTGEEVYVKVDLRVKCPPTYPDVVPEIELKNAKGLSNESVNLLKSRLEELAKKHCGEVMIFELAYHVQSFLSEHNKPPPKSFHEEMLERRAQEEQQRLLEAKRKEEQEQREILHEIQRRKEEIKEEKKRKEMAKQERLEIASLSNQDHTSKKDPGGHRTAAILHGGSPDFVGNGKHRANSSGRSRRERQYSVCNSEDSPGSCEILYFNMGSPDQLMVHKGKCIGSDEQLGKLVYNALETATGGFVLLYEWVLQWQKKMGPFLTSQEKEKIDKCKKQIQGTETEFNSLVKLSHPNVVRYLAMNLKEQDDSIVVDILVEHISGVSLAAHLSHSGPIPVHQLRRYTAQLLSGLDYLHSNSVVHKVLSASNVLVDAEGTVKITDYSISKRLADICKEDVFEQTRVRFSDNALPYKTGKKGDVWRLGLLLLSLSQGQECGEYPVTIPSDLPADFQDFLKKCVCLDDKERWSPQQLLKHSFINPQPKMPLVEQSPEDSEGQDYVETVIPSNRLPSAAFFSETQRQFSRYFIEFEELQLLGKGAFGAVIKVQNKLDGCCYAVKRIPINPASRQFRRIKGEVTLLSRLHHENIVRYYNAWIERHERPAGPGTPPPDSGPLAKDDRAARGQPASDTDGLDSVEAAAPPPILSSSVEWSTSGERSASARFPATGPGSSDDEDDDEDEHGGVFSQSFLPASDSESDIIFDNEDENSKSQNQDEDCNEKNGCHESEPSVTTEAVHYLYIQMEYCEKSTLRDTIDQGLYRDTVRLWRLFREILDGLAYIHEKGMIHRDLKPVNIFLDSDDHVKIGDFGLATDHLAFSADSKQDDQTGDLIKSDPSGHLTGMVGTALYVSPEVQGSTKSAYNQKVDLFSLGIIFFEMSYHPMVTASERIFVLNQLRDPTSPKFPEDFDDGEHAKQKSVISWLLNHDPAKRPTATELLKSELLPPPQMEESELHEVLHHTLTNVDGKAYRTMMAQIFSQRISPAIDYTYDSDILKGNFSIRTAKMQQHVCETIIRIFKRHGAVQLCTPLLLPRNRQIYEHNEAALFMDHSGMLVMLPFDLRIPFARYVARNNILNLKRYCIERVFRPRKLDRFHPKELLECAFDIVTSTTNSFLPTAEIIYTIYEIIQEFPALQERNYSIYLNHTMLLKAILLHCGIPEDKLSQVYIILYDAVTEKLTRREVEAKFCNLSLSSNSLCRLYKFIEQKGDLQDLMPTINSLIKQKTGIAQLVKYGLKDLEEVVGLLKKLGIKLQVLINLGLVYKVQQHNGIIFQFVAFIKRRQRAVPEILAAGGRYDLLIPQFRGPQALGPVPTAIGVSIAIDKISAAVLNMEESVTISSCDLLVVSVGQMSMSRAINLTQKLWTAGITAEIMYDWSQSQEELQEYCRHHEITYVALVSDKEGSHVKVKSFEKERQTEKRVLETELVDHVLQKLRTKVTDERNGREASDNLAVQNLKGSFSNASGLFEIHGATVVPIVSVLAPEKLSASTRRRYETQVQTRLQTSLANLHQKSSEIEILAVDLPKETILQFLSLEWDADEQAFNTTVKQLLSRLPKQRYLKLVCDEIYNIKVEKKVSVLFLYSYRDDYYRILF

`CNc1ncc2cc(-c3cc(NC(=O)NCCC(C)(C)C)c(F)cc3C)c(C)nc2n1` [LY-3009120] displayed a Kd of 43.1 ± 2.5 µM.
